According to ChEMBL document CHEMBL1145476, “Inhibitory activities of three classes of acyclic nucleoside phosphonates against murine polyomavirus and primate simian virus 40 strains” (Antimicrob Agents Chemother, 2007):

Experiments:
[1] = Selectivity index, ratio of CC50 for african green monkey BSC1 cells ot EC50 for Simian virus 40 PML2 DAR; assay type: functional, BSC-1
Murine polyomavirus [2] = test: Antiviral activity against Murine polyomavirus LID1 ATCC VR-252 in mouse UC1B cells assessed as reduction of virus-induced cytopathogenicity; assay type: functional, cell-based; conditions: Alphapolyomavirus muris
Simian virus 40 [3] = test: Antiviral activity against Simian virus 40 PML2 DAR in african green monkey BSC1 cells assessed as reduction of virus-induced cytopathogenicity; assay type: functional, organism-based; conditions: Betapolyomavirus macacae, BSC-1
Simian virus 40 [4] = test: Antiviral activity against Simian virus 40 PML1 EK in african green monkey BSC1 cells assessed as reduction of virus-induced cytopathogenicity; assay type: functional, organism-based; conditions: Betapolyomavirus macacae, BSC-1
[5] = Selectivity index, ratio of CC50 for african green monkey BSC1 cells ot EC50 for Simian virus 40 A2895; assay type: functional, BSC-1
[6] = Selectivity index, ratio of CC50 for mouse UC1B cells to EC50 of Murine polyomavirus PTA; assay type: functional
[7] = Selectivity index, ratio of CC50 for african green monkey BSC1 cells ot EC50 for Simian virus 40 PML1 EK; assay type: functional, BSC-1
Simian virus 40 [8] = test: Antiviral activity against Simian virus 40 A2895 in african green monkey BSC1 cells assessed as reduction of virus-induced cytopathogenicity; assay type: functional, organism-based; conditions: Betapolyomavirus macacae, A2895, BSC-1
[9] = Cytotoxicity against mouse UC1B cells; assay type: cell-based
[10] = Cytotoxicity against african green monkey BSC1 cells; assay type: cell-based, BSC-1; conditions: chlorocebus aethiops
[11] = Selectivity index, ratio of CC50 for mouse UC1B cells to EC50 of Murine polyomavirus MN/RDE Toronto; assay type: functional
[12] = Selectivity index, ratio of CC50 for mouse UC1B cells to EC50 of Murine polyomavirus LID1; assay type: functional
Murine polyomavirus [13] = test: Antiviral activity against Murine polyomavirus MN/RDE Toronto in mouse UC1B cells assessed as reduction of virus-induced cytopathogenicity; assay type: functional, cell-based; conditions: Alphapolyomavirus muris
Murine polyomavirus [14] = test: Antiviral activity against Murine polyomavirus 2PTA2 in mouse UC1B cells assessed as reduction of virus-induced cytopathogenicity; assay type: functional, cell-based; conditions: Alphapolyomavirus muris, 2PTA2, UC1B
Murine polyomavirus [15] = test: Antiviral activity against Murine polyomavirus PTA in mouse UC1B cells assessed as reduction of virus-induced cytopathogenicity; assay type: functional, cell-based; conditions: Alphapolyomavirus muris
[16] = Selectivity index, ratio of CC50 for mouse UC1B cells to EC50 of Murine polyomavirus 2PTA2; assay type: functional
Murine polyomavirus [17] = test: Antiviral activity against Murine polyomavirus LID1 in UC1B cells assessed as reduction of virus yield; assay type: functional; conditions: Alphapolyomavirus muris
Murine polyomavirus [18] = test: Antiviral activity against Murine polyomavirus PTA in UC1B cells assessed as reduction of virus yield; assay type: functional; conditions: Alphapolyomavirus muris
Simian virus 40 [19] = test: Antiviral activity against Simian virus 40 A2895 in african green monkey BSC1 cells assessed as reduction of virus yield; assay type: functional; conditions: Betapolyomavirus macacae, A2895, BSC-1

Row | Structure (SMILES) | Ratio CC50/EC50 [1] | EC50 (Murine polyomavirus [2]) | EC50 (Simian virus 40 [3]) | EC50 (Simian virus 40 [4]) | Ratio CC50/EC50 [5] | Ratio CC50/EC50 [6] | Ratio CC50/EC50 [7] | EC50 (Simian virus 40 [8]) | CC50 [9] | CC50 [10] | Ratio CC50/EC50 [11] | Ratio CC50/EC50 [12] | EC50 (Murine polyomavirus [13]) | EC50 (Murine polyomavirus [14]) | EC50 (Murine polyomavirus [15]) | Ratio CC50/EC50 [16] | EC99 (Murine polyomavirus [17]) | EC99 (Murine polyomavirus [18]) | EC99 (Simian virus 40 [19])
1 | Nc1ncnc2c1ncn2C[C@H]1COP(=O)(O)CO1 | 9.7 | 58.6 µM | 38.3 µM | 49.8 µM | 11.4 | 2.9 | 7.5 | 32.6 µM | 190 µM | 371 µM | 4.9 | 3.2 | 39 µM | 47.4 µM | 65.3 µM | 4 | – | – | –
2 | Nc1ncn(C[C@@H](CO)OCP(=O)(O)O)c(=O)n1 | 27.4 | 16.1 µM | 16.1 µM | 14.6 µM | 27.1 | 21.1 | 29.9 | 16.1 µM | 294 µM | 436 µM | 30.6 | 18.2 | 9.6 µM | 13.9 µM | 13.9 µM | 21.1 | – | – | –
3 | Nc1ncn(C[C@H]2COP(=O)(O)CO2)c(=O)n1 | 16.9 | 38.1 µM | 19.1 µM | 19.8 µM | 16.3 | 4.3 | 16.3 | 19.8 µM | 139 µM | 323 µM | 8.1 | 3.7 | 17.1 µM | 20.6 µM | 32 µM | 6.8 | – | – | –
4 | CCCCCCCCCCCCCCCCOCCOP1(=O)CO[C@@H](Cn2cnc(N)nc2=O)CO1 (stereo not given in full) | 39.4 | 0.88 µM | 0.34 µM | 0.23 µM | 44.7 | 35.5 | 58.3 | 0.3 µM | 18.8 µM | 13.4 µM | 34.2 | 21.4 | 0.55 µM | 0.56 µM | 0.53 µM | 33.6 | 0.81 µM | 0.43 µM | 0.26 µM
5 | Nc1nc(N)c2ncn(C[C@@H](CO)OCP(=O)(O)O)c2n1 | 4.6 | 9.1 µM | 47.1 µM | 33.6 µM | 4.4 | 2.6 | 6.5 | 49.3 µM | 21.4 µM | 217 µM | 3 | 2.4 | 7.2 µM | 6.3 µM | 8.2 µM | 3.4 | – | – | –
6 | Nc1nccc2c1ncn2C[C@@H](CO)OCP(=O)(O)O | 6 | 13.9 µM | 7.3 µM | 6 µM | 3.1 | 3.3 | 7.3 | 13.9 µM | 49 µM | 43.7 µM | 4.9 | 3.5 | 9.9 µM | 11.6 µM | 14.9 µM | 4.2 | – | – | –
7 | Nc1cc(OC[C@@H](CO)OCP(=O)(O)O)nc(N)n1 | 1.2 | 8.2 µM | 112 µM | 73.1 µM | 1.9 | 1 | 1.9 | 72.8 µM | 10.5 µM | 140 µM | 0.9 | 1.3 | 11.2 µM | 13.9 µM | 10.9 µM | 0.8 | – | – | –
8 | Nc1ncnc2c1ncn2C[C@@H](CO)OCP(=O)(O)O | 8.8 | 13.2 µM | 10.2 µM | 15.4 µM | 7.3 | 1.7 | 5.8 | 12.3 µM | 24.3 µM | 89.3 µM | 2.6 | 1.8 | 9.5 µM | 9.5 µM | 14.5 µM | 2.6 | – | – | –
9 | Nc1cc(OCCOCP(=O)(O)O)nc(N)n1 | 0.4 | 12.1 µM | 181 µM | 140 µM | 0.5 | 4.5 | 0.5 | 148 µM | 43.2 µM | 72.8 µM | 2 | 3.6 | 21.2 µM | 15.9 µM | 9.5 µM | 2.7 | – | – | –
10 | Nc1ncnc2c1ncn2CCOCP(=O)(O)O [ADEFOVIR] | 1.7 | 9.9 µM | 126 µM | 168 µM | 1.3 | 2.1 | 1.3 | 158 µM | 24.2 µM | 210 µM | 2.5 | 2.4 | 9.5 µM | 12.8 µM | 11.3 µM | 1.9 | – | – | –
11 | Nc1ccn(C[C@@H](CO)OCP(=O)(O)O)c(=O)n1.O.O [CIDOFOVIR] | 23.8 | 18.7 µM | 17.8 µM | 19.3 µM | 22.3 | 10.4 | 21.9 | 19 µM | 169 µM | 424 µM | 13 | 9 | 13 µM | 19 µM | 16.2 µM | 8.9 | – | – | –
12 | Nc1ccn(C[C@H]2COP(=O)(O)CO2)c(=O)n1 [CYCLIC CIDOFOVIR] | >=36.3 | 42 µM | 18.5 µM | 20.8 µM | >=30.3 | 10.7 | >=32.3 | 22.2 µM | 582 µM | ≥ 672 µM | 16.7 | 13.8 | 34.9 µM | 61.2 µM | 54.4 µM | 9.5 | – | – | –
